# Results from patent US9439882B2, “Compounds and compositions for the treatment of cancer” (PROMETIC BIOSCIENCES, INC., priority 2010, dated 2016).
# Legend:
# IL-12 production = IL-12 production in LPS-stimulated RAW264.7 cells (ELISA); assay type: cell-based; details: 100 ng/mL LPS, 21 h; for IL-12: compound 0.5 mM
# Description: The effect of selected compounds on IL-12 production was undertaken in RAW264.7 (macrophage-like) cells. RAW264.7 cells were cultured with 100 ng/mL of LPS in presence or absence of compounds for 21 h in a humidified atmosphere of 95% air-5% carbon dioxide at 37° C. IL-12 concentration in the culture medium was measured using the IL-12 ELISA according to the manufacturer (BD Biosciences) recommendations. […] Compounds have no effect on IL-12 production in the absence of LPS.
# CTGF production = assay: Inhibition of TGF-induced CTGF production in NHDF (ELISA); assay type: cell-based; details: Homo sapiens, 10 ng/mL TGF-β, 48 h
# Description: The effect of selected compounds on CTGF production was undertaken in normal human dermal fibroblast (NHDF) or human mesangial cells. Cells were cultured in DMEM (0.5% FBS) with or without 10 ng/mL of TGF-β for 48 h in a humidified atmosphere of 95% air-5% carbon dioxide at 37° C. CTGF measurement in the culture medium was measured using the CTGF ELISA according to the manufacturer (Prepotech) recommendations.
# P815 mastocytoma = assay: Primary P815 mastocytoma tumor growth in mice; assay type: in vivo
# Description: The syngeneic tumor P815 is a DBA/2 (H-2^d)-derived mastocytoma obtained from ATCC (TIB64). […] Mice were sacrificed around day 23 (depending on the experiment). […] Tumors were palpable, in general, 3-5 days post-inoculation.
# P815 liver metastasis = P815 liver metastasis in mice; assay type: in vivo
# Description: The syngeneic tumor P815 is a DBA/2 (H-2^d)-derived mastocytoma obtained from ATCC (TIB64). P815 cells were grown in DMEM containing 10% fetal bovine serum. At day 0, 50 μL of 5×10^5 viable P815 cells were subcutaneously injected to produce localized tumors in 6- to 8-week old DBA/2 mice. The animals were then serially monitored by manual palpation for evidence of tumor. […] Mice were sacrificed around day 23 (depending on the experiment). Serial tumor volume was obtained by bi-dimensional diameter measurements with calipers, using the formula 0.4 (a×b^2) where “a” was the major tumor diameter and “b” the minor perpendicular diameter. Tumors were palpable, in general, 3-5 days post-inoculation.
# It is known that P815 cells have the capacity to metastasize to the liver.
# HK-2 cells = assay: TGF-β induced epithelial to mesenchymal transition in HK-2 cells (real-time PCR of E-cadherin, CTGF, collagen 1); assay type: cell-based, human
# Description: FIG. 20 is a bar graph showing the effect of Compound XVII on E-cadherin in normal HK-2 cells and in TGF-β induced EMT cells. Real-time PCR using human E-cadherin TaqMan® Gene Expression Assay normalized to human GAPDH endogenous control; reference is […] cells 24 h (RQ=1). *means p<0.05, and ** means p<0.01 (t-test).
# FIG. 21 is a bar graph showing the effect of Compound XVII on CTGF in normal HK-2 cells and in TGF-β induced EMT cells. Real-time PCR using human CTGH TaqMan® Gene Expression Assay normalized to human GAPDH endogenous control; reference is TGF-β-treated cells 24 h (RQ=1). *means p<0.05, and ** means p<0.01 (t-test).
# FIG. 22 is a bar graph showing the effect of Compound XVII on collagen 1 in normal HK-2 cells and in TGF-β induced EMT cells. Real-time PCR using human Collagen 1 TaqMan® Gene Expression Assay normalized to human GAPDH endogenous control; reference is TGF-β-treated cells 24 h (RQ=1). ** means p<0.01 (t-test).
# Real-time PCR using human CTGF TaqMan® Gene Expression Assay and Collagen 1 TaqMan® Gene Expression Assay normalized to human GAPDH endogenous control; reference is TGF-β-treated cells 24 h (RQ=1).
# FIG. 24 is a bar graph showing the effect of Compound I on CTGF and collagen 1 expression in normal HK-2 cells and in TGF-β induced EMT cells. Real-time PCR using human CTGF TaqMan® Gene Expression Assay and Collagen 1α1 TaqMan® Gene Expression Assay normalized to human GAPDH endogenous control; reference is TGF-β-treated cells 24 h (RQ=1). Compound I is added at 0.5 mM.
# Further analysis was undertaken to determine the effect of Compoounds on EMT. The effect of Compound XVII on TGF-β induced EMT was analyzed on human epithelial […] cells (HK-2). To assess the progression of EMT, the pro-epithelial marker E-cadherin and the mesenchymal/pro-fibrotic markers CTGF and collagen 1 were assayed by quantitative real-time PCR. To determine the efficacy of Compound XVII in inhibiting TGF-β-induced EMT, verification of the ability of TGF-β to induce EMT in HK-2 cells.
# CT-26WT colon tumor = assay: Primary colon CT-26WT tumor in mice; assay type: in vivo; details: FIG. 12 and 13; for efficacy on primary tumor CT-26 (single agent): sodium decanoate oral 200 mg/kg daily, 5-fluorouracil i.p. 40 mg/kg day 6, 13, 20, Compound XV oral
# Description: The syngeneic tumor CT-26WT (CT-26) is a colon tumor cell line obtained from ATCC (CRL-2638). CT-26 cells were grown in RPMI containing 10% fetal bovine serum. At day 0, 50 μL of 5×10^6 viable CT-26 cells were subcutaneously injected to produce localized tumors in 6- to 8-week old mice. The animals were then serially monitored by manual palpation for evidence of tumor. […] Mice were sacrificed at day 25. Serial tumor volume was obtained by bi-dimensional diameter measurements with calipers, using the formula 0.4 (a×b^2) where “a” was the major tumor diameter and “b” the minor perpendicular diameter. Tumors were palpable, in general, 3-5 days post-inoculation.
# [1] = TGF-β-stimulated cells, 24 h, normalized to GAPDH, sodium decanoate and Compound I at 0.5 mM
# [2] = compound alone, no TGF-β, sodium decanoate and Compound I at 0.5 mM
compound,measurement,setting,value
CCCCOc1ccc(C(CC(=O)[O-])c2cccc(F)c2)cc1.[Na+] (stereo not shown),melting point,,135 °C
"CCCCCCCC(=O)c1ccc2c(c1)CC(C(=O)[O-])C2.[Na+] (racemic) [Compound XIX, Sodium (RS)-5-octanoylindane-2-carboxylate]",IL-12 (pg/mL),IL-12 production; compound 0.05 mM,53 (at 0.05 mM) pg/mL
same,inhibition at 63 µM,CTGF production; 63 μM,45%
"CCCCCCCC(=O)c1cccc2c1CC(C(=O)[O-])C2.[Na+] (racemic) [Compound XLI, Sodium (RS)-4-Octanoylindane-2-Carboxylate]",IL-12 (pg/mL),IL-12 production; compound 0.1 mM,25 (at 0.1 mM) pg/mL
"CCCCCCCCC(Oc1ccc(C(=O)CCCCCCC)cc1)C(=O)[O-].[Na+] (racemic) [Compound XVII, Sodium (RS)-2-[4-octanoylphenoxy]decanoate]",IL-12 (pg/mL),IL-12 production; compound 0.05 mM,209 (at 0.05 mM) pg/mL
same,inhibition at 7.5 µM,CTGF production; 7.5 μM,40%
same,P815 tumor growth,P815 mastocytoma; FIG. 17,significant reduction (p<0.05)
same,efficacy compared with soluble acetylsalicylic acid,P815 mastocytoma; FIG. 17,better efficacy to the gold standard compound
same,reduction of the number of mice with liver metastasis,"P815 liver metastasis; 50 mg/kg, FIG. 18",approximately 20%
same,TGF-β induced EMT,"HK-2 cells; HK-2 cells, sodium decanoate and Compound I at 0.5 mM",significantly inhibited
same,E-cadherin transcript expression,"HK-2 cells; TGF-β induced EMT cells, 24 h, normalized to GAPDH, FIG. 20",upregulation
same,CTGF transcript expression,HK-2 cells; [1],downregulation
same,collagen 1 transcript expression,HK-2 cells; [1],downregulation
same,basal expression of CTGF,HK-2 cells; [2],downregulate
same,basal expression of collagen 1,HK-2 cells; [2],downregulate
"CCCCCCCC(=O)c1ccc(OC(CCCCCC)C(=O)[O-])cc1.[Na+] (racemic) [Compound XXIV, Sodium (RS)-2-[4-Octanoylphenoxy]octanoate]",IL-12 (pg/mL),IL-12 production; compound 0.02 mM,12 (at 0.02 mM) pg/mL
same,melting point,,165 to 170 °C
"CCCCCCCCC(Oc1ccc(C(=O)CCC)cc1)C(=O)[O-].[Na+] (racemic) [Compound XXV, Sodium (RS)-2-[4-Butyrylphenoxy]decanoate]",IL-12 (pg/mL),IL-12 production; compound 0.04 mM,73 (at 0.04 mM) pg/mL
same,melting point,,262 to 278 °C
"CCCCCCCCC(Oc1ccc(C(=O)CCCCC)cc1)C(=O)[O-].[Na+] (racemic) [Compound XXVI, Sodium (RS)-2-[4-Hexanoylphenoxy]decanoate]",IL-12 (pg/mL),IL-12 production; compound 0.02 mM,54 (at 0.02 mM) pg/mL
same,melting point,,275 to 280 °C
"O=c1[nH]cc(F)c(=O)[nH]1 [5-fluorouracil, reference compound]",efficacy on primary tumor CT-26 (single agent),CT-26WT colon tumor,weak efficacy
"CCCCCc1cccc(CCC(=O)[O-])c1.[Na+] [Compound II, Sodium salt of 3-(3-pentylphenyl)propionic acid]",IL-12,IL-12 production,351 pg/mL
same,inhibition at 100 µM,CTGF production; 100 μM,38%
same,P815 tumor growth,"P815 mastocytoma; oral 200 mg/kg, FIG. 7 and 8",significant reduction (p<0.05)
CCCCc1cccc(CCC(=O)[O-])c1.[Na+] [Compound III],IL-12,IL-12 production,62 pg/mL
same,inhibition at 500 µM,CTGF production,46%
"CCC/C=C/c1cccc(CC(=O)[O-])c1.[Na+] [Compound IV, Sodium salt of E-(3-pent-1-enyl-phenyl)acetic acid]",IL-12,IL-12 production,19 pg/mL
same,inhibition at 500 µM,CTGF production,34%
"CCCCCc1cc(CC(=O)[O-])ccc1O.[Na+] [Compound IX, Sodium 2-[4-Hydroxy-3-pentylphenyl]acetate]",IL-12,IL-12 production,20 pg/mL
same,melting point,,193 to 197 °C
"CCCCCc1cc(O)cc(CC(=O)[O-])c1.[Na+] [Compound VIII, Sodium salt of [3-Hydroxy-5-pentylphenyl]acetic acid]",IL-12,IL-12 production,17 pg/mL
same,inhibition at 200 µM,CTGF production,47%
CCCC/C=C/c1cccc(CC(=O)[O-])c1.[Na+] [Compound VI],IL-12,IL-12 production,53 pg/mL
"CCCCCc1ccc(C(=O)[O-])cc1.[Na+] [Compound XI, Sodium salt of 4-pentylbenzoic acid]",IL-12,IL-12 production,78 pg/mL
same,inhibition at 500 µM,CTGF production,28%
"CCCCCCc1cccc(C(=O)[O-])c1.[Na+] [Compound XIII, Sodium salt of 3-hexylbenzoate]",IL-12 (pg/mL),IL-12 production; compound 0.125 mM,18 (at 0.125 mM) pg/mL
same,inhibition at 125 µM,CTGF production; 125 μM,29%
"O=C([O-])CCc1ccc(NCc2cccc(Oc3ccccc3)c2)cc1.[Na+] [Compound XV, 3-(4-(3-phenoxy-benzylamino)phenyl) propionic acid]",IL-12,IL-12 production,37 pg/mL
same,inhibition at 20 µM,CTGF production; 20 μM,22%
same,P815 tumor growth,"P815 mastocytoma; oral 200 mg/kg, FIG. 7 and 8",significant reduction (p<0.05)
same,reduction of mice with liver metastasis,"P815 liver metastasis; oral 200 mg/kg, p<0.05, FIG. 9 and 10",50%
same,efficacy on primary tumor CT-26 (single agent),CT-26WT colon tumor,weak efficacy
"CCCCCCCC(=O)c1cccc(C(=O)[O-])c1.[Na+] [Compound XVIII, Sodium 3-octanoylbenzoate]",IL-12,IL-12 production,1099 pg/mL
same,inhibition at 200 µM,CTGF production,49%
sodium decanoate and 5-fluorouracil,tumor growth T/C,"CT-26WT colon tumor; combination, from day 16 to day 26",approximately 40%
